Here are results for five compounds from ChEMBL document CHEMBL4813919, “Development of programmable gemcitabine-GnRH pro-drugs bearing linker controllable "click" oxime bond tethers and preclinical evaluation against prostate cancer” (Eur J Med Chem, 2021).

Data set [1] in a line: In vivo agonist activity at GnRH-R in C57BL6/N mouse assessed as release of testosterone in blood at 639.21 ug/kg, ip measured after 2 hrs by LC-MS/MS analysis. The format is functional. As to conditions: dose 639.21 µg/kg; call rule not given here.
For a further data set, the system named is PC-3. Kind of data set: Antiproliferative activity against human PC-3 cells measured after 72 hrs by MTT assay. The format is functional, cell-based. The conditions noted are these: PC-3, 72 h. (In general: Tetrazolium assays rely on reduction of a dye to a coloured formazan, in cell work by metabolically active cells.)
Data set [2] can be described thus: Metabolic stability in mouse liver microsomes assessed as GOXG1-met2 formation at 6.13 uM incubated for 1 hr by LC-MS analysis. Format: ADME, Microsome. Background: Microsomes from liver hold many membrane-bound enzymes, among them those of drug oxidation.
The nature of data set [3]: Metabolic stability in human liver microsomes assessed as GOXG1-met2 formation at 6.13 uM incubated for 1 hr by LC-MS analysis. Format: ADME, Microsome.
Data set [4] is described as follows: Prodrug conversion in mouse C57BL/6N assessed as gemcitabine release at 10 mg/kg, IP measured 1 to 2.5 hrs by LC-MS/MS analysis. The format is ADME, organism-based. As to conditions: in vivo, time 1-2.5 hrs.
Data set [5] is described as follows: Drug metabolism in human plasma assessed as release of gemcitabine at 1 ug/ml measured after 4 hrs by LC-MS/MS method. The format is ADME, cell-free. As to conditions: dose 1 µg/ml.
A further data set deals with DU-145. Kind of data set: Antiproliferative activity against human DU-145 cells measured after 72 hrs by MTT assay. The format is functional, cell-based. The conditions noted are these: DU-145, 72 h.
Data set [6] can be described thus: Prodrug conversion in mouse C57BL/6N assessed as gemcitabine release at 10 mg/kg, IP measured after 15 mins by LC-MS/MS analysis. Format: ADME, organism-based. The conditions noted are these: in vivo, 0.25 h.
Data set [7] addresses T1, Gonadotropin-releasing hormone receptor (Homo sapiens, UniProt P30968).
T1 sequence (P30968 whole entry): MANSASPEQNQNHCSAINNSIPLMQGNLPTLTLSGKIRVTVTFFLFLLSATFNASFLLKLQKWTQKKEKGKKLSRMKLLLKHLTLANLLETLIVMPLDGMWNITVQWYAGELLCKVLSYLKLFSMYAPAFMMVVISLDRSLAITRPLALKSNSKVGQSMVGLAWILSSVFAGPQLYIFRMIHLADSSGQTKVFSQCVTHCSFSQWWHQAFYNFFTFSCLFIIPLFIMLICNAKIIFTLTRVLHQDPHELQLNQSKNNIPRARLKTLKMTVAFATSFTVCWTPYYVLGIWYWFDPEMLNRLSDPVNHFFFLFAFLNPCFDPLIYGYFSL
Kind of data set: Displacement of [125I]-DTrp6-LHRH from human GnRH-R by radioligand binding assay. (In a radioligand displacement assay an active substance lowers the binding of a labelled ligand.)

The nature of data set [8]: Drug metabolism in human DU-145 cells assessed as release of gemcitabine at 1 uM measured after 24 hrs by LC-MS/MS method. Format: ADME, cell-based. The conditions noted are these: du-145, 24 h.
The nature of data set [9]: Stability in human plasma at 1 ug/ml measured after 4 hrs by LC-MS/MS method. The conditions noted are these: at 1 µg/mL. The format is ADME, cell-free.
A short description of data set [10]: Prodrug conversion in mouse C57BL/6N assessed as gemcitabine release at 10 mg/kg, IP measured after 30 mins by LC-MS/MS analysis. The format is ADME, organism-based. The conditions noted are these: in vivo, 0.5 h.
Data set [11] is described as follows: Drug uptake in human DU-145 cells assessed as release of gemcitabine at 10 uM measured upto 8 hrs by LC-MS/MS method. Format: ADME, cell-based. As to conditions: du-145, 8 h.
A short description of data set [12]: Drug uptake in human DU-145 cells at 10 uM measured upto 8 hrs by LC-MS/MS method. Format: ADME, cell-based. The conditions noted are these: du-145, 8 h.
Data set [13] is described as follows: Stability in human DU-145 cells at 1 uM measured upto 10 hrs by LC-MS/MS method. The conditions noted are these: du-145, 10 h. Format: ADME, cell-based.
Data set [14] in a line: Drug uptake in C57BL/6N mouse blood at 10 mg/kg, IP measured after 30 mins of dosing by LC-MS/MS analysis. The conditions noted are these: whole blood, read-out: Drug uptake. The format is ADME, organism-based.
A short description of data set [15]: In vivo agonist activity at GnRH-R in C57BL6/N mouse assessed as release of testosterone in blood at 105.2 ug/kg, ip measured after 2 hrs by LC-MS/MS analysis. Format: functional. As to conditions: dose 105.2 µg/kg.
Data set [16] can be described thus: In vivo agonist activity at GnRH-R in C57BL6/N mouse assessed as release of testosterone in blood at 483.6 ug/kg, ip measured after 2 hrs by LC-MS/MS analysis. Format: functional. The conditions noted are these: dose 483.6 µg/kg.

SMILES strings stand for the structures. Where a SMILES comes first, the peptide text is derived from it. [ ]: non-standard residue; d: D form. The star is where a group is joined. ξ: configuration not given here. X1 = Nc1ccn(C2OC(COC(=O)CO/N=C/C(=O)*)C(O)C2(F)F)c(=O)n1; X2 = O=C(CO/N=C/C(=O)*)Nc1ccn(C2OC(CO)C(O)C2(F)F)c(=O)n1; X3 = Nc1ccn(C2OC(CO)C(OC(=O)CO/N=C/C(=O)*)C2(F)F)c(=O)n1; ξAla(indol-2-yl) = NC(Cc1cc2ccccc2[nH]1)C(=O)O; pGlu = O=C1CC[CH](C(=O)O)N1

A word on the IC50: it is the midpoint of a concentration-inhibition curve. Read a low IC50 as higher potency. On to `CC(C)CC(NC(=O)C(CCCCNC(=O)/C=N/OCC(=O)OCC1OC(n2ccc(N)nc2=O)C(F)(F)C1O)NC(=O)C(Cc1ccc(O)cc1)NC(=O)C(CO)NC(=O)C(Cc1cc2ccccc2[nH]1)NC(=O)C(Cc1c[nH]cn1)NC(=O)C1CCC(=O)N1)C(=O)NC(CCCNC(=N)N)C(=O)N1CCCC1C(=O)NCC(N)=O` (stereo unspecified) ([pGlu]H[ξAla(indol-2-yl)]SYK(X1)LRPG-NH2; configuration not given here), for which the Activity in data set [1] was found to be 40.1 ng/mL. Besides, the IC50 in the data set on PC-3 was determined as 754 nM; in the data set with DU-145, 611 nM; in data set [7], 1.9 nM. The Drug metabolism entry is “Metabolite_Detected” in data set [2]; “Metabolite_Detected” in data set [3]; 600 ng/mL in data set [4]; “Metabolite_Detected” in data set [5]; 406 ng/mL in data set [6]; 385 ng/mL in [10]. For the same compound, the Stabilty entry in data set [8], in data set [9] and in data set [13] was “Stable” each time. Further, the Drug uptake entry in [11] and in [12] was “Active” in each case.

Regarding `CC(C)CC(NC(=O)C(CCCCNC(=O)/C=N/OCC(=O)Nc1ccn(C2OC(CO)C(O)C2(F)F)c(=O)n1)NC(=O)C(Cc1ccc(O)cc1)NC(=O)C(CO)NC(=O)C(Cc1cc2ccccc2[nH]1)NC(=O)C(Cc1c[nH]cn1)NC(=O)C1CCC(=O)N1)C(=O)NC(CCCNC(=N)N)C(=O)N1CCCC1C(=O)NCC(N)=O` (stereo unspecified) ([pGlu]H[ξAla(indol-2-yl)]SYK(X2)LRPG-NH2; configuration not given here), the half-inhibitory concentration (IC50) with PC-3 amounted to 833 nM; in the data set on DU-145, 590 nM. Also, the Drug metabolism entry in [5] is “Metabolite_Detected”. In addition, the Stabilty entry in data set [8], in data set [9] and in [13] was “Stable” in each case. The Drug uptake result in data set [11] and in data set [12] was “Active” in each case.

Take `CC(C)CC(NC(=O)C(CCCCNC(=O)/C=N/OCC(=O)OC1C(CO)OC(n2ccc(N)nc2=O)C1(F)F)NC(=O)C(Cc1ccc(O)cc1)NC(=O)C(CO)NC(=O)C(Cc1cc2ccccc2[nH]1)NC(=O)C(Cc1c[nH]cn1)NC(=O)C1CCC(=O)N1)C(=O)NC(CCCNC(=N)N)C(=O)N1CCCC1C(=O)NCC(N)=O` (stereo unspecified) ([pGlu]H[ξAla(indol-2-yl)]SYK(X3)LRPG-NH2; configuration not given here): the IC50 in the data set on PC-3 was found to be 675 nM; in the data set on DU-145, 494 nM. Further, the Drug metabolism result in data set [5] was “Metabolite_Detected”. Also, the Stabilty entry in [8], in data set [9] and in data set [13] was “Unstable” in each case. In addition, the Drug uptake entry in data set [11] and in data set [12] was “Active” each time.

For the compound `Nc1ccn([C@@H]2O[C@H](CO)[C@@H](O)C2(F)F)c(=O)n1` [GEMCITABINE], the concentration for half-maximal inhibition (IC50) with PC-3 was determined as 546 nM; in the data set with DU-145, 399 nM. Besides, in [14], the concentration at 0.5 h came out at 685 ng/mL. Also, the Activity in data set [15] was 0.3 ng/mL.

Consider `CCNC(=O)[C@@H]1CCCN1C(=O)[C@H](CCCNC(=N)N)NC(=O)[C@H](CC(C)C)NC(=O)[C@@H](CC(C)C)NC(=O)[C@H](Cc1ccc(O)cc1)NC(=O)[C@H](CO)NC(=O)[C@H](Cc1c[nH]c2ccccc12)NC(=O)[C@H](Cc1c[nH]cn1)NC(=O)[C@@H]1CCC(=O)N1` [LEUPROLIDE], for which the Activity in [16] was found to be 40.9 ng/mL.
